Paper PMC5247395 (EJNMMI Research, 2017)

Key:
[1] = system: PC-3 PIP/flu tumor-bearing mice; assay: Biodistribution in PC-3 PIP/flu tumor-bearing mice; details: i.v.; for PC-3 flu Tumor: PSMA^neg xenograft; for PC-3 PIP Tumor: PSMA^pos xenograft
Description: In vivo experiments were approved by the local veterinarian department and conducted in accordance with the Swiss law of animal protection. All mice were obtained from Charles River Laboratories (Sulzfeld, Germany), at the age of 5–6 weeks. Female, athymic nude Balb/c mice were subcutaneously inoculated with PC-3 PIP cells (6 × 10^6 cells in 100 μL Hank’s balanced salt solution (HBSS) with Ca^2+/Mg^2+) on the right shoulder and with PC-3 flu cells (5 × 10^6 cells in 100 μL HBSS with Ca^2+/Mg^2+) on the left shoulder 2 weeks before the performance of the experiments.
Mice were sacrificed at different time points post injection (p.i.) of the radioligands. Selected tissues and organs were collected, weighed and measured using a γ-counter. The results were decay-corrected and listed as a percentage of the injected activity per gram of tissue mass (% IA/g).

[2] = system: PC-3 PIP/flu tumor-bearing mice; assay: PET/CT and SPECT/CT imaging of PC-3 PIP/flu tumor-bearing mice; assay type: in vivo; details: 2 h after injection
Description: PET/CT scans were performed using a small-animal bench-top PET/CT scanner (G8, Sofie Biosciences, Culver City, California, USA, and Perkin Elmer, Massachusetts, USA) and a small-animal SPECT/CT scanner (NanoSPECT/CT^TM, Mediso Medical Imaging Systems, Budapest, Hungary), respectively (Additional file 1). During the scans, the mice were anesthetized with a mixture of isoflurane and oxygen.
The PET scans were followed by a CT of 1.5 min. The SPECT scan of 45 min duration was performed 2 h after injection of ^177Lu-PSMA-617 (~50 MBq, 1 nmol) followed by a CT of 7.5 min. Reconstruction of the acquired data was performed by using the software of the respective scanner.
All images were prepared using VivoQuant post-processing software (version 2.10, inviCRO Imaging Services and Software, Boston USA). A Gauss post-reconstruction filter (full width at half maximum = 1 mm) was applied to the images, which were presented with the scale adjusted to allow visualization of the most important organs and tissues, usually by cutting 0.5–1% of the lower scale.
PET/CT scans were performed with a small-animal bench-top PET/CT scanner (G8, Sofie Biosciences, Culver City, California, U.S. and Perkin Elmer, Massachusetts, U.S.). The energy window ranged from 150 keV to 650 keV. […]

[3] = molecular target: T1, PSMA (Homo sapiens, UniProt Q04609); assay: Saturation binding assay on PC-3 PIP cells (PSMA affinity, KD)
T1 construct: expressed in transfected cells; host or cells: PC-3 PIP cells (PSMA-positive subline of human PC-3 prostate cancer cells), provided by Prof; Martin Pomper, Johns Hopkins
T1 sequence (Q04609 whole entry): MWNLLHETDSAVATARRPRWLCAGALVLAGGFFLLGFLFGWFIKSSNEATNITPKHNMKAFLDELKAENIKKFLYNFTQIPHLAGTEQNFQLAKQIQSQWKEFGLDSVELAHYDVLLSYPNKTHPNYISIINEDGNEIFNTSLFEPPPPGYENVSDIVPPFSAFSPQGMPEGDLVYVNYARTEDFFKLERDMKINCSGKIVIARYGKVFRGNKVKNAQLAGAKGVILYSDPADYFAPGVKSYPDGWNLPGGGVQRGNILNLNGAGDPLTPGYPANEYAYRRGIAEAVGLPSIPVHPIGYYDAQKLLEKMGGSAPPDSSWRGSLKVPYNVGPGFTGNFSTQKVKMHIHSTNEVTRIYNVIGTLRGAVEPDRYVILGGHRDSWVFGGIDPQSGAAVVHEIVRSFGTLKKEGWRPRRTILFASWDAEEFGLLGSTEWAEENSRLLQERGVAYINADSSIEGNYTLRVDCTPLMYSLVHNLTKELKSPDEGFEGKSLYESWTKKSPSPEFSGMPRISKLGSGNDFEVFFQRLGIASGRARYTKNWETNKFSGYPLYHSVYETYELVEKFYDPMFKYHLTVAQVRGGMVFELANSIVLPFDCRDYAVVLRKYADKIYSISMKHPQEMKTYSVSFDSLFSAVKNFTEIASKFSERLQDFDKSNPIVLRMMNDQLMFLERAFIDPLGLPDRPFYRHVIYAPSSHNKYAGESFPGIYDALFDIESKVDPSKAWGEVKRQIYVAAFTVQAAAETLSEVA
Description: Determination of the PSMA affinity was performed by saturation binding assays using PC-3 PIP cells and different concentrations of ^nat/44Sc-, ^nat/177Lu-, ^nat/68Ga-PSMA-617, or ^nat/68Ga-PSMA-11, respectively (Additional file 1).
Determination of the KD values was performed by saturation binding assays using PSMA^pos PC-3 PIP cells. After successful radiolabeling of the PSMA ligands, a 2.5-fold molar excess of the corresponding cold metal was added and the reaction mixture was incubated for another 10 min at 95 °C. Quality control was performed again after reaction of the radioligands with the “cold” metal as described in the main manuscript.
The cells were seeded in 48-well-plates (8 x 10^5 cells in 500 uL RPMI medium/well) allowing adhesion and growth overnight at 37 °C and 5% CO2. For the entire experiment, the well-plates were kept on ice. After removal of the supernatant, the cells were washed once with ice-cold PBS pH 7.4 prior to the addition of different concentrations (1 nM-2 µM) of either ^nat/44Sc-, ^nat/177Lu-, ^nat/67/68Ga-PSMA-617 or ^nat/67/68Ga-PSMA-11 in ice-cold RPMI medium without supplements. For the determination of non-specific binding, cell samples were incubated with 2-phosphonomethyl pentanedioic acid (2-PMPA, 200 μM). The well-plates were incubated for 30 min at 4 °C. Then, the supernatants were removed and the cells washed twice with ice-cold PBS followed by addition of NaOH (1 M, 600 µL) to each well. The cell suspensions were transferred to 4 mL tubes for measurement in a γ-counter (Wallac Wizard 1480, Perkin Elmer). The KD values were determined by plotting specific-binding (total binding minus unspecific binding) against the molar concentration of the added radioligands followed by nonlinear regression analysis using GraphPad Prism 7 software.

[4] = n-octanol/PBS distribution coefficient (shake-flask); assay type: physicochemical; details: n-octanol/PBS pH 7.4, shake-flask
Description: The distribution coefficients (logD values) of the radioligands were determined by a shake-flask method using liquid-liquid extraction followed by phase separation, as previously reported (Additional file 1). In brief, the PSMA ligands were labeled at a specific activity of 5 MBq/nmol. […] The vials were vortexed vigorously for 1 min and then centrifuged for 6 min for phase separation. The concentration of radioactivity in a defined volume of each layer was measured in a γ-counter (Perkin Elmer, Wallac Wizard 1480). The distribution coefficients were expressed as the logarithm of the ratio of counts per minute (cpm) measured in the n-octanol phase to the cpm measure in the PBS phase. The values are reported as the average of at least three independent measurements (± standard deviation, SD), each performed with five replicates. Data were analyzed for significance using a one-way ANOVA test (GraphPad Prism software, version 7). A p value of <0.05 was considered as statistically significant.

## O=C([O-])CN(CCN(CC(=O)[O-])Cc1cc(CCC(=O)NCCCCCC(=O)NCCCC[C@H](NC(=O)N[C@@H](CCC(=O)O)C(=O)O)C(=O)O)ccc1[O-])Cc1cc(CCC(=O)O)ccc1[O-].[68Ga+3] [^68Ga-PSMA-11]
[1]; 15 min p.i.
  Blood: 5.05 ± 0.58 % IA/g
  Bone: 1.85 ± 0.20 % IA/g
  Heart: 2.45 ± 0.29 % IA/g
  Intestines: 1.42 ± 0.07 % IA/g
  Kidneys: 74.7 ± 7.02 % IA/g
  Liver: 2.00 ± 0.32 % IA/g
  Lung: 3.87 ± 0.22 % IA/g
  Muscle: 1.21 ± 0.11 % IA/g
  Salivary glands: 2.73 ± 0.27 % IA/g
  Spleen: 5.33 ± 1.78 % IA/g
  Stomach: 1.42 ± 0.15 % IA/g
  PC-3 flu Tumor: 2.19 ± 0.05 % IA/g
  PC-3 PIP Tumor: 31.5 ± 13.0 % IA/g
[1]; 30 min p.i.
  Blood: 2.55 ± 0.72 % IA/g
  Bone: 0.81 ± 0.14 % IA/g
  Heart: 1.31 ± 0.19 % IA/g
  Intestines: 1.20 ± 0.24 % IA/g
  Kidneys: 86.7 ± 14.6 % IA/g
  Liver: 1.55 ± 0.04 % IA/g
  Lung: 2.23 ± 0.33 % IA/g
  Muscle: 0.67 ± 0.06 % IA/g
  Salivary glands: 1.59 ± 0.18 % IA/g
  Spleen: 4.76 ± 1.13 % IA/g
  Stomach: 0.85 ± 0.19 % IA/g
  PC-3 flu Tumor: 1.04 ± 0.17 % IA/g
  PC-3 PIP Tumor: 49.3 ± 4.97 % IA/g
[1]; 2 h p.i.
  Blood: 0.08 ± 0.01 % IA/g
  Bone: 0.06 ± 0.00 % IA/g
  Heart: 0.18 ± 0.03 % IA/g
  Intestines: 0.95 ± 0.86 % IA/g
  Kidneys: 58.8 ± 7.62 % IA/g
  Liver: 0.56 ± 0.04 % IA/g
  Lung: 0.31 ± 0.10 % IA/g
  Muscle: 0.06 ± 0.01 % IA/g
  Salivary glands: 0.39 ± 0.01 % IA/g
  Spleen: 2.18 ± 0.38 % IA/g
  Stomach: 0.35 ± 0.17 % IA/g
  PC-3 flu Tumor: 0.13 ± 0.02 % IA/g
  PC-3 PIP Tumor: 40.0 ± 2.55 % IA/g
[2]
  accumulation in the kidneys on PET/CT images vs. the other radioligands: significantly higher extent
[3]; 30 min at 4 °C, saturation binding
  Kd: 87 ± 27 nM
[3]; inverse molar ratio of average KD values, ^177Lu-PSMA-617 set to 1
  Relative PSMA-binding affinity: 0.4
[4]
  LogD values: −4.82 ± 0.07
